Source: patent US12409206B2, “Use of cyclosporine analogues for treating fibrosis” (Hepion Pharmaceuticals, Inc., priority 2020, dated 2025)
Read-outs that look alike come from different tables or passages of the source.

Tested on: human precision cut liver slices (PCLS)
Assay: PCLS RNA-Seq, Stimulation Protocol: TGFb/PDGF+CRV vs TGFb/PDGF+Vehicle
Type: cell-based
Details: for fold change in RNA: presence of exogenous TGFβ+PDGF-BB, universal in all donors
Experimental: PCLS were obtained from 5 human donors who underwent resection of liver cancer. Replicate slices were collected from healthy margins of the resections and cultured for 4 or 6 days depending on the experimental protocol. In the Nonstimulation Protocol slices were cultured for 6 days and treated for the entire period with DMSO vehicle or 5 μM CRV431. In the Stimulation Protocol slices were rested for 1 day and then administered the cytokines, TGFβ and PDGF-BB, for 3 days to stimulate inflammation and fibrosis. DMSO vehicle, CRV431 (1 and 5 μM), Alk5i (10 μM), obeticholic acid (5 μM), elafibranor (5 μM), resmetirom ([…]), and Aramchol (5 μM) were administered individually as drug treatments in the Stimulation Protocol concurrent with TGFβ+PDGF-BB. Culture medium treatments were replaced daily.
Four types of evaluations were conducted on the PCLS: (a) secretion of inflammation and fibrosis biomarkers into the culture medium, (b) histological staining and quantitation of Sirius red as a measure of tissue fibrosis, (c) gene expression of inflammation and fibrosis biomarkers by RT-PCR, and (d) RNA sequencing (RNA-Seq) of the complete transcriptome. Each of the four types of evaluation is described below: • (a) Biomarker secretion. Spent culture medium was collected daily from duplicate slices for each treatment. ELISAs were used to quantify secretion of monocyte chemoattractant protein (MCP-1), interleukin-6 (IL-6), tissue inhibitor of metalloproteinase-1 (TIMP1), hyaluronic acid, fibronectin, and collagen 1α1. For each donor the mean level of biomarker secretion in each treatment group was expressed as a percentage change relative to DMSO vehicle, the percentages averaged for all donors, and finally the mean daily percentage change calculated from all days of evaluation. Results are shown in FIG. 8A (secreted markers-% daily average change). • (b) Sirius red histological staining. […] Sirius red was quantified morphometrically in the histological sections as the percentage area with Sirius red staining in 10 sections from each treatment. In the Nonstimulation Protocol the quantity of Sirius red staining was expressed relative to the vehicle group. In the Stimulation Protocol the quantity of Sirius red staining was expressed relative to nonstimulated PCLS (0%) and TGFβ+PDGF-BB-stimulated+vehicle PCLS (100%). Results are shown in FIG. 8B (Sirius red staining for tissue fibrosis). • (c) Gene expression by RT-PCR. RNA was isolated from duplicate liver slices per treatment at the end of the experiments and evaluated by RT-PCR for 5 markers of inflammation and fibrosis: MCP-1, IL-6, TIMP1, αSMA, and collagen 1α1. β actin was used as a reference gene to calculate relative levels of each target gene RNA. […] Results are shown in FIG. 8C (gene expression by RT-PCR). • (d) Gene expression by RNA-Seq. RNA sequencing of the complete transcriptome (30 million reads per sample) was conducted on vehicle and 5 μM CRV431 treatment groups from 3 donors both from the Nonstimulation and Stimulation Protocols. Data were analyzed by bioinformatics software programs to identify genes that were differentially expressed between vehicle and CRV431 treatments.
For the evaluation done for (d), 12 samples corresponding to 3 different donor slides which underwent 4 different treatments were studied. the comparisons carried out in this analysis are: (1) TGFb/PDGF+CRV vs TGFb/PDGF+Vehicle (V), and (2) Non-stimulated+CRV vs Non-stimulated+Vehicle. […] Table 1. Samples for evaluation (d)
Quality Control check was performed in all samples. All samples had more than 30 million reads and a quality score average >35 for almost all the bases in the sequences. The duplication levels are expected as it is RNA sequencing, and different copies of the same RNA are expected to be present in the samples. All samples had good amount of reads and quality, therefore all samples passed the QC checked and were included in the analysis. […]

Compound: CC[C@@H]1NC(=O)[C@H]([C@H](O)[C@H](C)CCCCCCNC(C)=O)N(C)C(=O)[C@H](C(C)C)N(C)C(=O)[C@H](CC(C)C)N(C)C(=O)[C@H](CC(C)C)N(C)C(=O)[C@@H](C)NC(=O)[C@H](C)NC(=O)[C@H](CC(C)C)N(C)C(=O)[C@H](C(C)C)NC(=O)[C@H](CC(C)C)N(C)C(=O)[C@@H](C)N(C)C1=O [CRV431]
- log2FoldChange: 1.025
- log2FoldChange (gene AC009053.1, TGFb/PDGF+CRV vs TGFb/PDGF+Vehicle): 1.194
- log2FoldChange (gene AC134772.2, TGFb/PDGF+CRV vs TGFb/PDGF+Vehicle): −4.561
- log2FoldChange (gene ADH1B, TGFb/PDGF+CRV vs TGFb/PDGF+Vehicle): 2.156
- log2FoldChange (gene ADH1C, TGFb/PDGF+CRV vs TGFb/PDGF+Vehicle): 1.869
- log2FoldChange (gene ADH4, TGFb/PDGF+CRV vs TGFb/PDGF+Vehicle): 2.123
- log2FoldChange (gene ADH6, TGFb/PDGF+CRV vs TGFb/PDGF+Vehicle): 1.903
- log2FoldChange (gene ADIRF, TGFb/PDGF+CRV vs TGFb/PDGF+Vehicle): 1.402
- log2FoldChange (gene APLNR, TGFb/PDGF+CRV vs TGFb/PDGF+Vehicle): 0.844
- log2FoldChange (gene ASPG, TGFb/PDGF+CRV vs TGFb/PDGF+Vehicle): 0.91
- log2FoldChange (gene ATP13A4, TGFb/PDGF+CRV vs TGFb/PDGF+Vehicle): −3.082
- log2FoldChange (gene C7, TGFb/PDGF+CRV vs TGFb/PDGF+Vehicle): 0.739
- log2FoldChange (gene CA11, TGFb/PDGF+CRV vs TGFb/PDGF+Vehicle): −1.573
- log2FoldChange (gene CBFA2T2, TGFb/PDGF+CRV vs TGFb/PDGF+Vehicle): 1.299
- log2FoldChange (gene CD93, TGFb/PDGF+CRV vs TGFb/PDGF+Vehicle): −0.613
- log2FoldChange (gene CHST1, TGFb/PDGF+CRV vs TGFb/PDGF+Vehicle): −1.087
- log2FoldChange (gene COL5A3, TGFb/PDGF+CRV vs TGFb/PDGF+Vehicle): −0.842
- log2FoldChange (gene CXADR, TGFb/PDGF+CRV vs TGFb/PDGF+Vehicle): 1.61
- log2FoldChange (gene CYP4A11, TGFb/PDGF+CRV vs TGFb/PDGF+Vehicle): 1.611
- log2FoldChange (gene CYP26A1, TGFb/PDGF+CRV vs TGFb/PDGF+Vehicle): −1.283
- log2FoldChange (gene CYP26B1, TGFb/PDGF+CRV vs TGFb/PDGF+Vehicle): −0.656
- log2FoldChange (gene DCHS1, TGFb/PDGF+CRV vs TGFb/PDGF+Vehicle): −0.686
- log2FoldChange (gene DLL4, TGFb/PDGF+CRV vs TGFb/PDGF+Vehicle): −0.69
- log2FoldChange (gene DUOX2, TGFb/PDGF+CRV vs TGFb/PDGF+Vehicle): −2.182
- fold change in RNA (gene DUOX2): −4.5 fold
- log2FoldChange (gene DVL1, TGFb/PDGF+CRV vs TGFb/PDGF+Vehicle): 0.635
- log2FoldChange (gene ENSG00000283623 (symbol NA), TGFb/PDGF+CRV vs TGFb/PDGF+Vehicle): −5.759
- log2FoldChange (gene ERVK13-1, TGFb/PDGF+CRV vs TGFb/PDGF+Vehicle): −1.125
- log2FoldChange (gene ESAM, TGFb/PDGF+CRV vs TGFb/PDGF+Vehicle): −0.573
- log2FoldChange (gene ESM1, TGFb/PDGF+CRV vs TGFb/PDGF+Vehicle): −1.401
- fold change in RNA (gene ESMI): −2.6 fold
- log2FoldChange (gene ESR1, TGFb/PDGF+CRV vs TGFb/PDGF+Vehicle): 3.688
- log2FoldChange (gene F2RL3, TGFb/PDGF+CRV vs TGFb/PDGF+Vehicle): −0.711
- log2FoldChange (gene GLYATL1, TGFb/PDGF+CRV vs TGFb/PDGF+Vehicle): 1.438
- log2FoldChange (gene GPR4, TGFb/PDGF+CRV vs TGFb/PDGF+Vehicle): −0.9
- log2FoldChange (gene GRAP, TGFb/PDGF+CRV vs TGFb/PDGF+Vehicle): −0.772
- log2FoldChange (gene HIST2H2AA4, TGFb/PDGF+CRV vs TGFb/PDGF+Vehicle): −7.504
- log2FoldChange (gene IGHV4-61, TGFb/PDGF+CRV vs TGFb/PDGF+Vehicle): 7.957
- log2FoldChange (gene IGLON5, TGFb/PDGF+CRV vs TGFb/PDGF+Vehicle): −0.851
- log2FoldChange (gene ISLR2, TGFb/PDGF+CRV vs TGFb/PDGF+Vehicle): −1.27
- log2FoldChange (gene KDM6A, TGFb/PDGF+CRV vs TGFb/PDGF+Vehicle): 0.785
- log2FoldChange (gene LAMA4, TGFb/PDGF+CRV vs TGFb/PDGF+Vehicle): −0.939
- log2FoldChange (gene LIMS3, TGFb/PDGF+CRV vs TGFb/PDGF+Vehicle): −1.705
- log2FoldChange (gene LOXL2, TGFb/PDGF+CRV vs TGFb/PDGF+Vehicle): −0.948
- fold change in RNA (gene LOXL2): −1.9 fold
- log2FoldChange (gene MCAM, TGFb/PDGF+CRV vs TGFb/PDGF+Vehicle): −0.841
- log2FoldChange (gene MEF2C, TGFb/PDGF+CRV vs TGFb/PDGF+Vehicle): −1.013
- log2FoldChange (gene MEG3, TGFb/PDGF+CRV vs TGFb/PDGF+Vehicle): −0.853
- log2FoldChange (gene MRC2, TGFb/PDGF+CRV vs TGFb/PDGF+Vehicle): −0.773
- log2FoldChange (gene MROH2A, TGFb/PDGF+CRV vs TGFb/PDGF+Vehicle): 3.641
- log2FoldChange (gene MT-CO1, TGFb/PDGF+CRV vs TGFb/PDGF+Vehicle): −0.85
- log2FoldChange (gene NID2, TGFb/PDGF+CRV vs TGFb/PDGF+Vehicle): −0.755
- log2FoldChange (gene NXPH4, TGFb/PDGF+CRV vs TGFb/PDGF+Vehicle): −0.808
- log2FoldChange (gene PAN2, TGFb/PDGF+CRV vs TGFb/PDGF+Vehicle): 1.019
- log2FoldChange (gene PANK3, TGFb/PDGF+CRV vs TGFb/PDGF+Vehicle): 0.687
- log2FoldChange (gene PCDH12, TGFb/PDGF+CRV vs TGFb/PDGF+Vehicle): −0.741
- log2FoldChange (gene PHF8, TGFb/PDGF+CRV vs TGFb/PDGF+Vehicle): 0.709
- log2FoldChange (gene PKLR, TGFb/PDGF+CRV vs TGFb/PDGF+Vehicle): 2.127
- log2FoldChange (gene PLXNA2, TGFb/PDGF+CRV vs TGFb/PDGF+Vehicle): 1.326
- log2FoldChange (gene POU6F1, TGFb/PDGF+CRV vs TGFb/PDGF+Vehicle): −1.716
- log2FoldChange (gene PPP1R16B, TGFb/PDGF+CRV vs TGFb/PDGF+Vehicle): −1.016
- log2FoldChange (gene RALGPS2, TGFb/PDGF+CRV vs TGFb/PDGF+Vehicle): 0.836
- log2FoldChange (gene RBMXL1, TGFb/PDGF+CRV vs TGFb/PDGF+Vehicle): −8.265
- log2FoldChange (gene RCCD1, TGFb/PDGF+CRV vs TGFb/PDGF+Vehicle): −1.838
- fold change in RNA (gene RCCD1): −3.6 fold
- log2FoldChange (gene RHCG, TGFb/PDGF+CRV vs TGFb/PDGF+Vehicle): −0.927
- log2FoldChange (gene RPS7P1, TGFb/PDGF+CRV vs TGFb/PDGF+Vehicle): 2.668
- log2FoldChange (gene SLC4A8, TGFb/PDGF+CRV vs TGFb/PDGF+Vehicle): −2.641
- log2FoldChange (gene SLC26A6, TGFb/PDGF+CRV vs TGFb/PDGF+Vehicle): −0.692
- log2FoldChange (gene SLC39A5, TGFb/PDGF+CRV vs TGFb/PDGF+Vehicle): 1.92
- log2FoldChange (gene SMC5, TGFb/PDGF+CRV vs TGFb/PDGF+Vehicle): 0.799
- log2FoldChange (gene STRA6, TGFb/PDGF+CRV vs TGFb/PDGF+Vehicle): −1.639
- fold change in RNA (gene STRA6): −3.1 fold
- log2FoldChange (gene TDO2, TGFb/PDGF+CRV vs TGFb/PDGF+Vehicle): 0.916
- log2FoldChange (gene TMEM70, TGFb/PDGF+CRV vs TGFb/PDGF+Vehicle): 1.062
- log2FoldChange (gene TTYH2, TGFb/PDGF+CRV vs TGFb/PDGF+Vehicle): −1.114
- fold change in RNA (gene UBD/FAT10): −2.0 fold
- log2FoldChange (gene UBD, TGFb/PDGF+CRV vs TGFb/PDGF+Vehicle): −1.035
- log2FoldChange (gene VWA8, TGFb/PDGF+CRV vs TGFb/PDGF+Vehicle): 1.514
- log2FoldChange (gene ZC3H10, TGFb/PDGF+CRV vs TGFb/PDGF+Vehicle): 1.022
- log2FoldChange (gene ZDHHC20, TGFb/PDGF+CRV vs TGFb/PDGF+Vehicle): 1.207
- log2FoldChange (gene ZNF461, TGFb/PDGF+CRV vs TGFb/PDGF+Vehicle): 1.391
